Assay results published in US7625875B2 (priority 2002, dated 2009).
Where two headings read alike, the source gives them in different places.

Columns and labels:
HCV = test: Clinical antiviral activity, serum HCV RNA (Amplicor HCV Monitor), val-mCyd daily for 15 days; settings: 100 mg
[1] = Stability in human plasma
WNV = test: microbe, parasite or virus in culture; type: cell-based, West Nile virus; settings: West Nile virus, read-out: WNV
DENV 2 = test: microbe, parasite or virus in culture; type: cell-based, dengue virus; settings: Dengue virus, read-out: DENV 2
in vitro = settings: human
Sb-1 = test: organism not typed; type: cell-based, Sabin type 1 poliomyelitis virus; settings: read-out: Sb-1

## CC(C)C(N)C(=O)OC1[C@@H](CO)O[C@@H](n2ccc(N)nc2=O)[C@@]1(C)O (stereo partly drawn) [val-mCyd, 2-Amino-3-methyl-butyric acid 5-(4-amino-2-oxo-2H-pyrimidine-1-yl)-4-hydroxy-2 hydroxy-methyl-4-methyl-tetrahydro-furan-3-yl ester]
HCV; Day 11
  Change from baseline (Day 1) in Log10 HCV RNA, median: −0.28 log10
  HCV RNA in Log10 scale, mean: 6.36 log10
  HCV RNA in Log10 scale, median: 6.56 log10
HCV; Day 15
  Change from baseline (Day 1) in Log10 HCV RNA, mean: −0.38 log10
  Change from baseline (Day 1) in Log10 HCV RNA, median: −0.43 log10
  HCV RNA in Log10 scale, mean: 6.30 log10
  HCV RNA in Log10 scale, median: 6.41 log10
HCV; Day 16
  Change from baseline (Day 1) in Log10 HCV RNA, mean: −0.39 log10
  Change from baseline (Day 1) in Log10 HCV RNA, median: −0.49 log10
  HCV RNA in Log10 scale, mean: 6.23 log10
  HCV RNA in Log10 scale, median: 6.40 log10
HCV; Day 17
  Change from baseline (Day 1) in Log10 HCV RNA, mean: −0.18 log10
  Change from baseline (Day 1) in Log10 HCV RNA, median: −0.24 log10
  HCV RNA in Log10 scale, mean: 6.65 log10
  HCV RNA in Log10 scale, median: 6.72 log10
HCV; Day 22
  Change from baseline (Day 1) in Log10 HCV RNA, mean: −0.15 log10
  Change from baseline (Day 1) in Log10 HCV RNA, median: −0.19 log10
  HCV RNA in Log10 scale, mean: 6.53 log10
  HCV RNA in Log10 scale, median: 6.66 log10
HCV; Day 29
  Change from baseline (Day 1) in Log10 HCV RNA, mean: 0.13 log10
  Change from baseline (Day 1) in Log10 HCV RNA, median: −0.12 log10
  HCV RNA in Log10 scale, mean: 6.67 log10
  HCV RNA in Log10 scale, median: 6.71 log10
HCV; Day −1 (pre-treatment)
  HCV RNA in Log10 scale, mean: 6.60 log10
  HCV RNA in Log10 scale, median: 6.75 log10
[1]; 37° C., after 10 hours
  input val-mCyd remaining: 2%
[1]; human, plasma
  half-life: 1.81 h
HCV genotype 1; 8.3 mg/kg/day dose group, end of treatment (day 7)
  mean reduction from baseline HCV viral load: 0.83 log10
HCV genotype 1; 8.3 mpk, animal 500, site 1, Day 2
  Change in baseline Log10 HCV RNA viral load: −1.156 log10
HCV genotype 1; 8.3 mpk, animal 500, site 1, Day 5
  Change in baseline Log10 HCV RNA viral load: −0.4038 log10
HCV genotype 1; 8.3 mpk, animal 500, site 1, Day 7
  Change in baseline Log10 HCV RNA viral load: −0.8051 log10
HCV genotype 1; 8.3 mpk, animal 500, site 2, Day 2
  Change in baseline Log10 HCV RNA viral load: −1.079 log10
HCV genotype 1; 8.3 mpk, animal 500, site 2, Day 5
  Change in baseline Log10 HCV RNA viral load: −0.5503 log10
HCV genotype 1; 8.3 mpk, animal 500, site 2, Day 7
  Change in baseline Log10 HCV RNA viral load: −1.063 log10
HCV genotype 1; 8.3 mpk, animal 501, site 1, Day 2
  Change in baseline Log10 HCV RNA viral load: −0.2518 log10
HCV genotype 1; 8.3 mpk, animal 501, site 1, Day 5
  Change in baseline Log10 HCV RNA viral load: −0.3618 log10
HCV genotype 1; 8.3 mpk, animal 501, site 1, Day 7
  Change in baseline Log10 HCV RNA viral load: −0.4361 log10
HCV genotype 1; 8.3 mpk, animal 501, site 2, Day 2
  Change in baseline Log10 HCV RNA viral load: −0.452 log10
HCV genotype 1; 8.3 mpk, animal 501, site 2, Day 5
  Change in baseline Log10 HCV RNA viral load: −0.7125 log10
HCV genotype 1; 8.3 mpk, animal 501, site 2, Day 7
  Change in baseline Log10 HCV RNA viral load: −0.9003 log10
HCV genotype 1; 16.6 mpk, animal 497, site 1, Day 2
  Change in baseline Log10 HCV RNA viral load: −0.7215 log10
HCV genotype 1; 16.6 mpk, animal 497, site 1, Day 5
  Change in baseline Log10 HCV RNA viral load: −0.907 log10
HCV genotype 1; 16.6 mpk, animal 497, site 1, Day 7
  Change in baseline Log10 HCV RNA viral load: −1.277 log10
HCV genotype 1; 16.6 mpk, animal 497, site 2, Day 2
  Change in baseline Log10 HCV RNA viral load: −0.8556 log10
HCV genotype 1; 16.6 mpk, animal 497, site 2, Day 5
  Change in baseline Log10 HCV RNA viral load: −1.02 log10
HCV genotype 1; 16.6 mpk, animal 497, site 2, Day 7
  Change in baseline Log10 HCV RNA viral load: −1.514 log10
HCV genotype 1; 16.6 mpk, animal 498, site 1, Day 2
  Change in baseline Log10 HCV RNA viral load: −0.2947 log10
HCV genotype 1; 16.6 mpk, animal 498, site 1, Day 5
  Change in baseline Log10 HCV RNA viral load: −0.2814 log10
HCV genotype 1; 16.6 mpk, animal 498, site 1, Day 7
  Change in baseline Log10 HCV RNA viral load: −0.603 log10
HCV genotype 1; 16.6 mpk, animal 498, site 2, Day 2
  Change in baseline Log10 HCV RNA viral load: −0.6585 log10
HCV genotype 1; 16.6 mpk, animal 498, site 2, Day 5
  Change in baseline Log10 HCV RNA viral load: −0.5597 log10
HCV genotype 1; 16.6 mpk, animal 498, site 2, Day 7
  Change in baseline Log10 HCV RNA viral load: −0.6914 log10
HCV genotype 1; animal 497, site 2, day 7, pretreatment 535,000
  HCV viral load: 16,500 genomes per ml
WNV
  EC50: 82 µM
DENV 2
  EC50: > 100 µM
In vitro
  CC50: 24 µM
Sb-1
  EC50: 14 µM
